Laboratory results taken from US20230131427A1, “FUNGICIDAL COMPOSITIONS” (SYNGENTA CROP PROTECTION AG, priority 2020, published 2023).
Read-outs that look alike come from different tables or passages of the source.

How the values were obtained:
Phakopsora pachyrhizi = test: Example B5: preventative activity against Phakopsora pachyrhizi (soybean rust), whole soybean plants sprayed, leaf disks inoculated; type: in vivo; settings: for inhibition at 22.5 g/ha / inhibition at 45 g/ha / inhibition at 90 g/ha / inhibition at 2.25 g/ha / inhibition at 4.5 g/ha / inhibition at 18 g/ha / inhibition at 225 g/ha / inhibition at 450 g/ha: Phakopsora pachyrhizi, foliar
Procedure: Whole soybean plants are treated with the recited active ingredients 4 weeks after planting. 1 day after spraying leaf disks are cut from the first trifoliate leaf. Five repetitions at each rate are conducted. The leaf disks are inoculated with Phakopsora pachyrhizi (Asian soybean rust) one day after treatment.
Evaluation of the leaf disks is conducted 11 to 14 days after inoculation and the activity is derived from the relation of the treated vs untreated, infested check (100=no disease, no damage to the leaf, 0=high infestation, leaf damaged heavily). The rates of the active ingredients used are given in the tables as g active ingredient (a.i.)/ha.

[1] = tested on: Glomerella lagenarium syn. Colletotrichum lagenarium; test: Example B1: mixtures, preventative activity against Glomerella lagenarium syn. Colletotrichum lagenarium, liquid culture; type: cell-based; settings: component B alone; for inhibition at 0.1 ppm / inhibition at 0.3 ppm: Colletotrichum orbiculare, read-out: Activity (%) B
Source text: (§1) This occurs whenever the action of an active ingredient combination is greater than the sum of the actions of the individual components. The action to be expected E for a given active ingredient combination obeys the so-called COLBY formula and can be calculated as follows (COLBY, S. R. “Calculating synergistic and antagonistic responses of herbicide combination”. Weeds, Vol. 15, pages 20-22; 1967):
(§2) If the action actually observed (O) is greater than the expected action (E), then the action of the combination is super-additive, i.e. there is a synergistic effect. In mathematical terms, synergism corresponds to a positive value for the difference of (O-E). In the case of purely complementary addition of activities (expected activity), said difference (O-E) is zero. A negative value of said difference (O-E) signals a loss of activity compared to the expected activity.
(§3) Conidia of the fungus from cryogenic storage were directly mixed into nutrient broth (PDB potato dextrose broth). A DMSO solution of the test compounds was placed into a microtiter plate (96-well format) and the nutrient broth containing the fungal spores was added to it.
(§4) Fungicidal activity was evaluated on a 100-0 scale (100=no disease growth; 0=well completely covered by mycelium).

Septoria glycines = test: Example B2: mixtures, preventative activity against Septoria glycines (brown spot), liquid culture; type: cell-based; settings: component B alone
Source text: as §1, §2
as §3, with “fungus harvested” for “fungus”, “a fresh culture grown on artificial media,” for “cryogenic storage”
as §4

Septoria tritici = test: Example B3: mixtures, preventative activity against Septoria tritici (leaf blotch), liquid culture; type: cell-based; settings: component B alone
Source text: as §1, §2, §3, §4

[2] = active ingredient alone, 22.5 g/ha, read-out: Observed Activity (%) (% of untreated)
[3] = active ingredient alone, 45 g/ha, read-out: Observed Activity (%) (% of untreated)
[4] = active ingredient alone, 90 g/ha, read-out: Observed Activity (%) (% of untreated)
[5] = applied alone, 22.5 g/ha, read-out: Observed Activity (% of untreated) against Phakopsora pachyrhizi
[6] = applied alone, 45 g/ha, read-out: Observed Activity (% of untreated) against Phakopsora pachyrhizi
[7] = applied alone, 90 g/ha, read-out: Observed Activity (% of untreated) against Phakopsora pachyrhizi
[8] = read-out: Observed Activity (% of untreated) against Phakopsora pachyrhizi
[9] = read-out: Observed Activity (%) (% of untreated) against Phakopsora pachyrhizi
[10] = Septoria glycines, 0.1 ppm, 100-0 scale, read-out: Activity (%) B
[11] = Septoria glycines, 0.3 ppm, 100-0 scale
[12] = Zymoseptoria tritici, 0.1 ppm, 100-0 scale, read-out: Activity (%) B

CC1COC(Cn2cncn2)(c2ccc(Oc3ccc(Cl)cc3)cc2Cl)O1 (centres unmarked) [Difenoconazole]
inhibition at 22.5 g/ha (Phakopsora pachyrhizi; [2]): 3% | inhibition at 45 g/ha (Phakopsora pachyrhizi; [3]): 10% | inhibition at 90 g/ha (Phakopsora pachyrhizi; [4]): 24% | inhibition at 22.5 g/ha (Phakopsora pachyrhizi; [5]): 3% | inhibition at 45 g/ha (Phakopsora pachyrhizi; [6]): 10% | inhibition at 90 g/ha (Phakopsora pachyrhizi; [7]): 24%

Cn1cc(C(=O)Nc2ccccc2-c2cc(F)c(F)c(F)c2)c(C(F)F)n1 [fluxapyroxad, reference compound]
Activity (%) B ([1]; 0.1 ppm): 0% | Activity (%) B ([1]; 0.3 ppm): 0% | Observed Activity (% of untreated) against Phakopsora pachyrhizi (Phakopsora pachyrhizi; applied alone, 2.25 g/ha): 8% | Observed Activity (% of untreated) against Phakopsora pachyrhizi (Phakopsora pachyrhizi; applied alone, 4.5 g/ha): 7% | Observed Activity (% of untreated) against Phakopsora pachyrhizi (Phakopsora pachyrhizi; applied alone, 9 g/ha): 66%

CON(C(=O)c1cn(C)nc1C(F)F)C(C)Cc1c(Cl)cc(Cl)cc1Cl (centres unmarked) [pydiflumetofen, reference compound]
Activity (%) B ([1]; 0.1 ppm): 0% | Activity (%) B ([1]; 0.3 ppm): 0% | Observed Activity (%) (% of untreated) against Phakopsora pachyrhizi (Phakopsora pachyrhizi; applied alone, 22.5 g/ha): 28% | Observed Activity (%) (% of untreated) against Phakopsora pachyrhizi (Phakopsora pachyrhizi; applied alone, 45 g/ha): 74%

O=C(Nc1ccccc1F)c1ccc(-c2noc(C(F)(F)F)n2)cc1 [N-(2-fluorophenyl)-4-[5-(trifluoromethyl)-1,2,4-oxadiazol-3-yl]benzamide]
inhibition at 10 ppm (Septoria glycines; Septoria glycines): 0% | inhibition at 10 ppm (Septoria glycines; Septoria glycines, 100-0 scale): 0% | inhibition at 20 ppm (Septoria glycines; Septoria glycines): 0% | inhibition at 20 ppm (Septoria glycines; Septoria glycines, 100-0 scale): 0% | inhibition at 10 ppm (Septoria tritici; Zymoseptoria tritici, 72 h, 10 ppm): 0% | inhibition at 20 ppm (Septoria tritici; Zymoseptoria tritici, 72 h, 20 ppm): 0%

O=C(O)CNCP(=O)(O)O [Glyphosate]
inhibition at 45 g/ha (Phakopsora pachyrhizi; [8]): 1% | inhibition at 90 g/ha (Phakopsora pachyrhizi; [8]): 0% | inhibition at 45 g/ha (Phakopsora pachyrhizi; [9]): 1% | inhibition at 90 g/ha (Phakopsora pachyrhizi; [9]): 0%

CC(O)(Cn1cncn1)c1ccc(Oc2ccc(Cl)cc2)cc1C(F)(F)F (centres unmarked) [mefentrifluconazole, reference compound]
Observed Activity (% of untreated) against Phakopsora pachyrhizi (Phakopsora pachyrhizi; applied alone, 22.5 g/ha): 1% | Observed Activity (%) (% of untreated) against Phakopsora pachyrhizi (Phakopsora pachyrhizi; applied alone, 22.5 g/ha): 1% | Observed Activity (% of untreated) against Phakopsora pachyrhizi (Phakopsora pachyrhizi; applied alone, 45 g/ha): 20% | Observed Activity (%) (% of untreated) against Phakopsora pachyrhizi (Phakopsora pachyrhizi; applied alone, 45 g/ha): 20%

CC(C)C1C2CCC1c1c(NC(=O)c3cn(C)nc3C(F)F)cccc12 (centres unmarked) [isopyrazam]
Activity (%) B (Septoria tritici; 0.1 ppm, 100-0 scale): 50% | Activity (%) B (Septoria tritici; 0.1 ppm, 72 hrs, 100=no disease growth): 50% | Activity (%) B (Septoria tritici; 0.3 ppm, 100-0 scale): 70% | Activity (%) B (Septoria tritici; 0.3 ppm, 72 hrs): 70%

CC1(C)N=C(c2cnc3ccccc3c2)c2ccccc2C1(F)F [quinofumelin]
Activity (%) B (Septoria tritici; 0.1 ppm, 100-0 scale): 0% | Activity (%) B (Septoria tritici; 0.3 ppm, 100-0 scale): 0%

Mancozeb
Observed Activity (% of untreated) against Phakopsora pachyrhizi (Phakopsora pachyrhizi; applied alone, 225 g/ha): 20% | Observed Activity (% of untreated) against Phakopsora pachyrhizi (Phakopsora pachyrhizi; applied alone, 450 g/ha): 34%

CO/C=C(/C(=O)OC)c1ccccc1Oc1cc(Oc2ccccc2C#N)ncn1 [azoxystrobin, reference compound]
Observed Activity (%) (% of untreated) (Phakopsora pachyrhizi; active ingredient alone, 2.25 g/ha): 0% | Observed Activity (%) (% of untreated) (Phakopsora pachyrhizi; active ingredient alone, 4.5 g/ha): 15% | Observed Activity (%) (% of untreated) (Phakopsora pachyrhizi; active ingredient alone, 9 g/ha): 23% | Observed Activity (%) (% of untreated) (Phakopsora pachyrhizi; active ingredient alone, 18 g/ha): 9% | Observed Activity (% of untreated) against Phakopsora pachyrhizi (Phakopsora pachyrhizi; applied alone, 2.25 g/ha): 0% | Observed Activity (% of untreated) against Phakopsora pachyrhizi (Phakopsora pachyrhizi; applied alone, 4.5 g/ha): 15% | Observed Activity (% of untreated) against Phakopsora pachyrhizi (Phakopsora pachyrhizi; applied alone, 9 g/ha): 23% | Observed Activity (% of untreated) against Phakopsora pachyrhizi (Phakopsora pachyrhizi; applied alone, 18 g/ha): 9%

COc1ccnc(C(=O)N[C@@H](C)C(=O)O[C@@H](C)[C@H](c2ccc(F)cc2C)C(C)C)c1OCOC(C)=O [[(1S,2S)-2-(4-fluoro-2-methyl-phenyl)-1,3-dimethyl-butyl](2S)-2-[[3-(acetoxymethoxy)-4-methoxy-pyridine-2-carbonyl]amino]propanoate]
inhibition at 0.1 ppm ([1]; 0.1 ppm): 20% | inhibition at 0.3 ppm ([1]; 0.3 ppm): 70%

CC(C)c1ccc(Cl)cc1CN(C(=O)c1c(C(F)F)nn(C)c1F)C1CC1 [Isoflucypram]
Observed Activity (% of untreated) against Phakopsora pachyrhizi (Phakopsora pachyrhizi; applied alone, 2.25 g/ha): 2% | Observed Activity (% of untreated) against Phakopsora pachyrhizi (Phakopsora pachyrhizi; applied alone, 4.5 g/ha): 1% | Observed Activity (% of untreated) against Phakopsora pachyrhizi (Phakopsora pachyrhizi; applied alone, 9 g/ha): 0%

COC(=O)N(OC)c1ccccc1COc1ccn(-c2ccc(Cl)cc2)n1 [pyraclostrobin, reference compound]
inhibition at 2.25 g/ha (Phakopsora pachyrhizi; active ingredient alone, 2.25 g/ha, read-out: Observed Activity (%) (% of untreated)): 0% | inhibition at 4.5 g/ha (Phakopsora pachyrhizi; active ingredient alone, 4.5 g/ha, read-out: Observed Activity (%) (% of untreated)): 0% | inhibition at 18 g/ha (Phakopsora pachyrhizi; active ingredient alone, 18 g/ha, read-out: Observed Activity (%) (% of untreated)): 13% | inhibition at 2.25 g/ha (Phakopsora pachyrhizi; applied alone, 2.25 g/ha, read-out: Observed Activity (% of untreated) against Phakopsora pachyrhizi): 0% | inhibition at 4.5 g/ha (Phakopsora pachyrhizi; applied alone, 4.5 g/ha, read-out: Observed Activity (% of untreated) against Phakopsora pachyrhizi): 0% | inhibition at 18 g/ha (Phakopsora pachyrhizi; applied alone, 18 g/ha, read-out: Observed Activity (% of untreated) against Phakopsora pachyrhizi): 13% | Observed Activity (% of untreated) against Phakopsora pachyrhizi (Phakopsora pachyrhizi; applied alone, 9 g/ha): 1%

CC(Cc1ccc(C(C)(C)C)cc1)CN1C[C@@H](C)O[C@@H](C)C1 (some centres unmarked) [fenpropimorph]
inhibition at 0.1 ppm (Septoria glycines; [10]): 20% | inhibition at 0.1 ppm (Septoria glycines; Septoria glycines, 0.1 ppm, read-out: Activity (%) B): 20% | inhibition at 0.3 ppm (Septoria glycines; Septoria glycines, 0.3 ppm): 50% | inhibition at 0.3 ppm (Septoria glycines; [11]): 50%

CC(C1CC1)C(O)(Cn1cncn1)c1ccc(Cl)cc1 (centres unmarked) [cyproconazole, reference compound]
inhibition at 0.1 ppm (Septoria glycines; [10]): 50% | inhibition at 0.3 ppm (Septoria glycines; Septoria glycines, 0.3 ppm): 70% | inhibition at 0.3 ppm (Septoria glycines; [11]): 70% | inhibition at 0.1 ppm (Septoria tritici; Zymoseptoria tritici, 72 h, 0.1 ppm, 72 hrs, 100=no disease growth, read-out: Activity (%) B): 20% | inhibition at 0.3 ppm (Septoria tritici; Zymoseptoria tritici, 72 h, 0.3 ppm, 72 hrs, read-out: Activity (%) B): 50% | inhibition at 0.1 ppm (Septoria tritici; [12]): 20% | inhibition at 22.5 g/ha (Phakopsora pachyrhizi; [2]): 15% | inhibition at 45 g/ha (Phakopsora pachyrhizi; [3]): 69% | inhibition at 90 g/ha (Phakopsora pachyrhizi; [4]): 84% | inhibition at 22.5 g/ha (Phakopsora pachyrhizi; [5]): 15% | inhibition at 45 g/ha (Phakopsora pachyrhizi; [6]): 69% | inhibition at 90 g/ha (Phakopsora pachyrhizi; [7]): 84%

CC(Cc1ccc(C(C)(C)C)cc1)CN1CCCCC1 (centres unmarked) [fenpropidin]
inhibition at 0.1 ppm (Septoria tritici; [12]): 0% | inhibition at 0.3 ppm (Septoria tritici; Zymoseptoria tritici, 0.3 ppm, 100-0 scale, read-out: Activity (%) B): 0%

S1SSSSSSS1 [sulphur]
inhibition at 0.1 ppm ([1]; 0.1 ppm): 0% | inhibition at 0.3 ppm ([1]; 0.3 ppm): 0%

CC(Cc1ccc(C(C)(C)C)cc1)CN1CCCCC1 (centres unmarked) [Fenpropidin]
inhibition at 225 g/ha (Phakopsora pachyrhizi; applied alone, 225 g/ha, read-out: Observed Activity (% of untreated) against Phakopsora pachyrhizi): 72% | inhibition at 225 g/ha (Phakopsora pachyrhizi; applied alone, 225 g/ha, read-out: Observed Activity (%) (% of untreated) against Phakopsora pachyrhizi): 72% | inhibition at 450 g/ha (Phakopsora pachyrhizi; applied alone, 450 g/ha, read-out: Observed Activity (% of untreated) against Phakopsora pachyrhizi): 77% | inhibition at 450 g/ha (Phakopsora pachyrhizi; applied alone, 450 g/ha, read-out: Observed Activity (%) (% of untreated) against Phakopsora pachyrhizi): 77%

CCC(=O)Oc1c(OC)ccnc1C(=O)N[C@@H](C)C(=O)O[C@@H](C)[C@@H](C)c1ccccc1C [[(1S,2S)-1-methyl-2-(o-tolyl)propyl](2S)-2-[(4-methoxy-3-propanoyloxy-pyridine-2-carbonyl)amino]propanoate, reference compound]
inhibition at 0.03 ppm (Septoria glycines; Septoria glycines, 0.03 ppm, 100-0 scale, read-out: Activity (%) B): 0% | inhibition at 0.06 ppm (Septoria glycines; Septoria glycines, 0.06 ppm, 100-0 scale): 0% | inhibition at 0.03 ppm (Septoria tritici; Zymoseptoria tritici, 72 h, 0.03 ppm, 72 hrs, read-out: Activity (%) B): 50% | inhibition at 0.06 ppm (Septoria tritici; Zymoseptoria tritici, 72 h, 0.06 ppm): 70%

OC(Cn1cncn1)(c1ccc(F)cc1)c1ccccc1F (centres unmarked) [flutriafol]
Activity (%) B (Septoria glycines; 0.1 ppm): 20% | Activity (%) B (Septoria glycines; 0.3 ppm): 70%

CO/C=C(/C(=O)OC)c1ccccc1COc1cccc(C(F)(F)F)n1 [picoxystrobin]
Activity (%) B ([1]; 0.1 ppm): 90% | Activity (%) B ([1]; 0.3 ppm): 90%
